“And” between values parts separate entries of the source, which are not always exact repeats. Equal entries are not always repeated.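 Tested at 5 concentrations; 48 h exposure; 96-well plates; endpoints linearly interpolated, else capped at highest concentration. At the GI50, growth is halved. TGI marks complete inhibition of growth.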
What was measured:
Assay in all cases: NCI tumour cell line growth inhibition, 48 h
LXFL 529 NSCLC = tested on: LXFL 529 NSCLC
DMS 114 small cell lung = tested on: DMS 114 small cell lung
SNB-78 CNS = tested on: SNB-78 CNS
HOP-18 NSCLC = tested on: HOP-18 NSCLC
DLD-1 colon = tested on: DLD-1 colon
XF 498 CNS = tested on: XF 498 CNS
M19-MEL melanoma = tested on: M19-MEL melanoma
P388/ADR leukemia = tested on: P388/ADR leukemia
SN12K1 renal = tested on: SN12K1 renal
RXF-631 renal = tested on: RXF-631 renal

`COc1ccc(-c2nnc(-c3c(C)n(C)n(-c4ccccc4)c3=O)o2)cc1` showed a TGI (LXFL 529 NSCLC) of over 100 µM, a TGI (DMS 114 small cell lung) of over 100 µM and a TGI (SNB-78 CNS) of over 100 µM. It also gave a TGI (HOP-18 NSCLC) of over 100 µM, a TGI (DLD-1 colon) of over 100 µM and a TGI (XF 498 CNS) of over 100 µM. For the same compound, the TGI (M19-MEL melanoma) was over 100 µM.

With `C/C(=N\NC(=O)c1cccnc1)c1cccc(/C(C)=N/NC(=O)c2cccnc2)n1.CC(=O)[O-].CC(=O)[O-].[Zn+2]` the GI50 (LXFL 529 NSCLC) was 0.836 µM, the TGI (LXFL 529 NSCLC) was over 100 µM and the GI50 (DMS 114 small cell lung) was 0.949 µM. For the same compound, the TGI (DMS 114 small cell lung) was 20.1 µM, the GI50 (SNB-78 CNS) was 32 µM and the TGI (SNB-78 CNS) was over 100 µM. For the same compound, the GI50 (HOP-18 NSCLC) was 2.55 µM, the TGI (HOP-18 NSCLC) was over 26.9 µM and the TGI (DLD-1 colon) was over 100 µM. For the same compound, the TGI (M19-MEL melanoma) was over 100 µM.

For `CC(C)N1CCC2(CC1)NNc1ncccc1-n1cccc12`, the TGI (DMS 114 small cell lung) was over 100 µM, the TGI (SNB-78 CNS) was over 100 µM and the TGI (HOP-18 NSCLC) was over 100 µM. For the same compound, the TGI (DLD-1 colon) was over 100 µM, the TGI (XF 498 CNS) was over 100 µM and the TGI (M19-MEL melanoma) was over 100 µM.

For `C[C@H](CN1CC(=O)NC(=O)C1)N1CC(=O)NC(=O)C1`, the TGI (P388/ADR leukemia) was over 96.4 µM, the TGI (SNB-78 CNS) was over 100 µM and the TGI (SN12K1 renal) was over 100 µM. For the same compound, the TGI (HOP-18 NSCLC) was over 100 µM, the TGI (DLD-1 colon) was over 100 µM and the TGI (XF 498 CNS) was over 100 µM. For the same compound, the TGI (M19-MEL melanoma) was over 100 µM.

For `O=C(NC12CC3CC(CC(C3)C1)C2)C(=O)c1c[nH]c2ccc([N+](=O)[O-])cc12`, the TGI (LXFL 529 NSCLC) was over 100 µM, the TGI (DMS 114 small cell lung) was over 100 µM and the TGI (HOP-18 NSCLC) was over 90.9 µM. It also gave a TGI (XF 498 CNS) of 60.6 µM and a TGI (M19-MEL melanoma) of over 100 µM.

In the case of `Nc1nn(CC(O)CO)c(=O)s1` (stereo not drawn), the TGI (LXFL 529 NSCLC) is reported as over 100 µM, the TGI (DMS 114 small cell lung) is reported as over 100 µM and the TGI (HOP-18 NSCLC) is reported as over 100 µM. It also gave a TGI (DLD-1 colon) of over 100 µM, a TGI (XF 498 CNS) of over 100 µM and a TGI (M19-MEL melanoma) of over 100 µM. It also gave a TGI (RXF-631 renal) of over 100 µM.

With `O=C1C2=C(CCCCC2)C2CCCCC12O` (stereo not drawn) the TGI (LXFL 529 NSCLC) was over 100 µM, the TGI (DMS 114 small cell lung) was over 100 µM and the TGI (SNB-78 CNS) was over 100 µM. The TGI (DLD-1 colon) was over 100 µM, the TGI (XF 498 CNS) was over 100 µM and the TGI (M19-MEL melanoma) was over 100 µM.

Compound `C=C1C(=O)O[C@@H]2OC3(C)CCC4C(C)CCC1C42OO3` (stereo partly drawn) has a TGI (P388/ADR leukemia) of 1.2 µM, a GI50 (SNB-78 CNS) of 3.66 µM and a TGI (SNB-78 CNS) of 19.8 µM. For the same compound, the TGI (SN12K1 renal) was 15.6 µM and 15.1 µM, the GI50 (HOP-18 NSCLC) was 20.1 µM and the TGI (HOP-18 NSCLC) was 34.5 µM and 30.2 µM. For the same compound, the GI50 (DLD-1 colon) was 1.02 µM, the TGI (DLD-1 colon) was 4.72 µM and 4.65 µM and the GI50 (XF 498 CNS) was 12 µM. For the same compound, the TGI (XF 498 CNS) was 24.3 µM and 3.88 µM, the GI50 (M19-MEL melanoma) was 2.44 µM and the TGI (M19-MEL melanoma) was 14.7 µM and 13.9 µM.

`COc1cc2cc3c4c(cc(OC)c(OC)c4c2cc1OC)CCN3C(=O)N(C)C` showed a TGI (LXFL 529 NSCLC) of over 100 µM, a TGI (DMS 114 small cell lung) of over 100 µM and a TGI (SNB-78 CNS) of over 100 µM. The TGI (DLD-1 colon) was over 100 µM and the TGI (M19-MEL melanoma) was over 100 µM.

`COC(=O)[C@@]12OC[C@]34C([C@@H](O)C1O)[C@@]1(C)CC(=O)C(O)=C(C)C1C[C@H]3OC(=O)[C@H](OC(=O)/C=C(/c1ccccc1)C(F)(F)F)[C@H]42` (stereo partly drawn) was tested, and the TGI (LXFL 529 NSCLC) was 15.3 µM, the TGI (DMS 114 small cell lung) was 17 µM and the TGI (SNB-78 CNS) was over 25 µM. The TGI (HOP-18 NSCLC) was over 25 µM, the TGI (DLD-1 colon) was over 25 µM and the TGI (XF 498 CNS) was 10.6 µM. The TGI (M19-MEL melanoma) was 11 µM.

`CCCCCCCC(=O)OCC(C[As](=O)(O)O)OC(=O)CCCCCCC` (stereo not drawn) was tested, and the TGI (LXFL 529 NSCLC) was 26.3 µM, the TGI (DMS 114 small cell lung) was 30.6 µM and the TGI (SNB-78 CNS) was 44.1 µM. It also gave a TGI (HOP-18 NSCLC) of 29.3 µM, a TGI (DLD-1 colon) of 30.9 µM and a TGI (M19-MEL melanoma) of 32.4 µM.

— PubChem BioAssay (NCI)
